In patent US11168073B2, “3,3-difluoroallylamines or salts thereof and pharmaceutical compositions comprising the same” (YUHAN CORPORATION, priority 2018, dated 2021):
Structures can show the parent of a compound that is named as a salt.

Experiments:
Assay type in all cases: biochemical
[1] = target: T1, recombinant human DAO (diamine oxidase) (Homo sapiens, UniProt P19801); assay: Activity evaluation on recombinant human DAO (Amplex Red/HRP-coupled assay, 1 mM putrescine substrate); settings: 1 mM putrescine, read-out: Inhibitory Activity (IC50, nM) DAO
T1 construct: purchased R&D systems
T1 sequence (P19801 20-751): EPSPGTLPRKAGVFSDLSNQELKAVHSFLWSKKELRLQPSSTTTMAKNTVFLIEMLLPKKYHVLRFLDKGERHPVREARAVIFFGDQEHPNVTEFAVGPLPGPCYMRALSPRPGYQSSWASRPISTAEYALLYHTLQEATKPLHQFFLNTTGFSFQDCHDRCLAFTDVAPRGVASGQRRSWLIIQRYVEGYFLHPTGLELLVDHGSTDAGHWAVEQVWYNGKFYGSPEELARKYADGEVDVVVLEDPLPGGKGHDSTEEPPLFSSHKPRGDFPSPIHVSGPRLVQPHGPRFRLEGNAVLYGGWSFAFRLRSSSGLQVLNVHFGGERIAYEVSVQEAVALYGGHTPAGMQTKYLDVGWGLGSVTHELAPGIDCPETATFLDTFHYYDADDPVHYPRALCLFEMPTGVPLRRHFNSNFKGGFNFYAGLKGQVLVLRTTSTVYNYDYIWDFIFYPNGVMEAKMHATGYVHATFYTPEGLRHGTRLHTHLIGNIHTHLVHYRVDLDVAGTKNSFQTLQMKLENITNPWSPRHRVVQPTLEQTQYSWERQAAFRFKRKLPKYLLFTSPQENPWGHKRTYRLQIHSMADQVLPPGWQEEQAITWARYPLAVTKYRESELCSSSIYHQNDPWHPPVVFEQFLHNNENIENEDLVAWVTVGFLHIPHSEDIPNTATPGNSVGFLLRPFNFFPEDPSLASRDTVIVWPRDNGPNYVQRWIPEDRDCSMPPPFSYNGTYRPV
Procedure: (§1) The compounds according to the present technology were evaluated in terms of activity on recombinant human VAP-1 (R&D systems) by measuring the level of hydrogen peroxide in horseradish peroxidase (HRP)-coupled reaction using Amplex Red Hydrogen Peroxide Assay Kit (Molecular Probes, Invitrogen, USA). The experiment was carried out at room temperature using benzylamine as a substrate. In the HRP-coupled reaction, hydrogen peroxide oxidation of 10-acetyl-3,7-dihydroxyphenoxazine (Amplex Red reagent) produces resorufin, which is a highly fluorescent compound. Briefly, the test compound was dissolved in dimethyl sulfoxide (DMSO) at a concentration of 20 mM. The dose-response assessment was made by 1:3 serial dilution in DMSO, thereby creating a 8 point curve. The concentration of the upper part was controlled according to the efficacy of the compounds, followed by the dilution with a reaction buffer solution to obtain a final DMSO concentration of less than 1%. To each well of a 96 black well plate, human VAP-1 purified in 50 mM sodium phosphate buffer solution (pH7.4) was added. The test compounds dissolved in DMSO were incubated with the human VAP-1 enzymes at 37° C. for 30 minutes. After 30-minute incubation, each well was added with a reaction mixture containing 200 uM Amplex Red reagent prepared from 50 mM sodium phosphate buffer solution (pH 7.4), 1 mM benzylamine, and 1 U/mL HRP. Fluorescence intensity was measured at several time points during 1-2 hours using a microplate reader (Flexstation3, Molecular Devices) under the wavelength condition exciting at 544 nm and reading the emission at 590 nm. The inhibitory effect of the compounds was measured as a decrease (%) in the signal rate as compared to the control group without any inhibitor (only diluted DMSO). Data was fixed to a logistic model with four variables and IC50 value was calculated using GraphPad Prism program.
(§2) In addition, the compounds according to the present technology were evaluated in terms of activity on a recombinant human MAO-A (monoamine oxidase-A, Sigma-Aldrich) and a recombinant human MAO-B (monoamine oxidase-B, Sigma-Aldrich) by using as substrates, 0.5 mM tyramine and 1 mM benzylamine, respectively, with a method similar to the activity evaluation method for recombinant human VAP-1. The compounds according to the present technology were also evaluated in terms of activity on a recombinant human DAO (diamine oxidase, R&D systems) by using as a substrate 1 mM putrescine with a method similar to the activity evaluation method for recombinant human VAP-1.

[2] = target: T2, recombinant human MAO-A (monoamine oxidase-A) (Homo sapiens, UniProt P21397); assay: Activity evaluation on recombinant human MAO-A (Amplex Red/HRP-coupled assay, 0.5 mM tyramine substrate); settings: 0.5 mM tyramine, read-out: Inhibitory Activity (IC50, nM) MAO-A
T2 construct: purchased Sigma-Aldrich
T2 sequence (P21397 1-527): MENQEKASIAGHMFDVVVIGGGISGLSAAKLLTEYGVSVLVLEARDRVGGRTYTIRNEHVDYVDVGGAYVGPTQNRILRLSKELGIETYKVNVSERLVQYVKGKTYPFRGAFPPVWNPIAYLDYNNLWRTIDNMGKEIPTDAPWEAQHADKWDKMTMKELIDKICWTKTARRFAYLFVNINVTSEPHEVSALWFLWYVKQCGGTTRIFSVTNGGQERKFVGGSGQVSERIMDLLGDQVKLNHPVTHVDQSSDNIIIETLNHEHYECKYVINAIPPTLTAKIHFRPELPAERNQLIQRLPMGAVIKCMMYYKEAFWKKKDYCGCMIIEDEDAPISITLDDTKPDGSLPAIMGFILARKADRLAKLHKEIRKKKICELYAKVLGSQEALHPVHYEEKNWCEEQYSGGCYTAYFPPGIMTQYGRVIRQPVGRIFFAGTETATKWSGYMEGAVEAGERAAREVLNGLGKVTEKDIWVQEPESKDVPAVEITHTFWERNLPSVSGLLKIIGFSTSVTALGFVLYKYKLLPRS
Procedure: as §1, §2

recombinant human VAP-1 = target: T3, recombinant human VAP-1 (Homo sapiens, UniProt Q16853); assay: Activity evaluation on recombinant human VAP-1 (Amplex Red/HRP-coupled hydrogen peroxide assay, benzylamine substrate); settings: recombinant human VAP-1; 30 min preincubation at 37° C.; 1 mM benzylamine; read-out: Inhibitory Activity (IC50, nM) human VAP-1
T3 construct: purchased R&D systems
T3 sequence (Q16853 1-763): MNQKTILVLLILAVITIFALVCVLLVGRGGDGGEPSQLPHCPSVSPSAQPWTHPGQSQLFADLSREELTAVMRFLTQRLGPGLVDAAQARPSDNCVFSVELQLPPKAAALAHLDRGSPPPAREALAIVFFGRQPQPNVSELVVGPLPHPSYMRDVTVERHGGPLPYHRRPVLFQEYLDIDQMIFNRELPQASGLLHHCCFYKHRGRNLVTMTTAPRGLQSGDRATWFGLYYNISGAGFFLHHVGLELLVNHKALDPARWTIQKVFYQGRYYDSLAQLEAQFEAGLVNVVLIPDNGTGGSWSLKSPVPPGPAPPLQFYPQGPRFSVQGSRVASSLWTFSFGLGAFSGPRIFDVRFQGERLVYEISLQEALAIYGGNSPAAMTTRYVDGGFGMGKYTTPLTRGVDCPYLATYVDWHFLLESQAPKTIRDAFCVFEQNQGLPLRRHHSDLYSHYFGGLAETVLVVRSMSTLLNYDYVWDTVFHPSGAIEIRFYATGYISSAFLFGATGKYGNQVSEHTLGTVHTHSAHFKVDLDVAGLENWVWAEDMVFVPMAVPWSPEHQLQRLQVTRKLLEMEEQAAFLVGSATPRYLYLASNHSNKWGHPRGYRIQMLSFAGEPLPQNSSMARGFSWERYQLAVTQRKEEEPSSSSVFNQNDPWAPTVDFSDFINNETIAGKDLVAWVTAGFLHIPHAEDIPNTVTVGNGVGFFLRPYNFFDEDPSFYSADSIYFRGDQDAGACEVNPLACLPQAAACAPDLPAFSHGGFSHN
Procedure: as §1

[3] = target: T4, recombinant human MAO-B (monoamine oxidase-B) (Homo sapiens, UniProt P27338); assay: Activity evaluation on recombinant human MAO-B (Amplex Red/HRP-coupled assay, 1 mM benzylamine substrate); settings: 1 mM benzylamine, read-out: Inhibitory Activity (IC50, nM) MAO-B
T4 construct: purchased Sigma-Aldrich
T4 sequence (P27338 1-520): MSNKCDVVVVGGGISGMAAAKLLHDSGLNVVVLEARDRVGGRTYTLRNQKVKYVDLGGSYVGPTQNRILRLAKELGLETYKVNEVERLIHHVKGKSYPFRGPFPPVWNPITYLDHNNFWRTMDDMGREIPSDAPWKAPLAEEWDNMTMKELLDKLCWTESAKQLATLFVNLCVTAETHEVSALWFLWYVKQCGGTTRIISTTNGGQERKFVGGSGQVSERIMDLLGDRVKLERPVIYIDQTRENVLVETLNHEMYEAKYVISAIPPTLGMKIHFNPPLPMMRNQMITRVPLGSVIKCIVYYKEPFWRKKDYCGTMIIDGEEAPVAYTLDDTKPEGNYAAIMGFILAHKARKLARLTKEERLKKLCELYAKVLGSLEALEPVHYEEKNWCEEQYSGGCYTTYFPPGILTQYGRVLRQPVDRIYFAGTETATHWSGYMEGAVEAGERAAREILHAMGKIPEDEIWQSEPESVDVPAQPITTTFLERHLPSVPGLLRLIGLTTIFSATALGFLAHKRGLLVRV
Procedure: as §1, §2

SMILES	IC50 [1] [nM]	IC50 [2] [nM]	IC50 (recombinant human VAP-1) [nM]	IC50 [3] [nM]
CS(=O)(=O)c1ccc(-c2ccc(-n3cnn(CC(CN)=C(F)F)c3=O)cc2F)cc1 [Example 24, 2-[2-(aminomethyl)-3,3-difluoro-allyl]-4-[3-fluoro-4-(4-methylsulfonylphenyl)phenyl]-1,2,4-triazol-3-one Trifluoroacetate]	600	> 100000	2.7	3300
NCC(Cn1ncn(-c2ccc(-c3ccc4c(c3)OCO4)c(F)c2)c1=O)=C(F)F [Example 28, 2-[2-(aminomethyl)-3,3-difluoro-allyl]-4-[4-(1,3-benzodioxol-5-yl)-3-fluoro-phenyl]-1,2,4-triazol-3-one Trifluoroacetate]	1600	> 100000	1.2	85
Cc1cc(-c2ccc(-n3cnn(CC(CN)=C(F)F)c3=O)cc2F)cc2c1NC(=O)CC2 [Example 29, 6-[4-[1-[2-(aminomethyl)-3,3-difluoro-allyl]-5-oxo-1,2,4-triazol-4-yl]-2-fluoro-phenyl]-8-methyl-3,4-dihydro-1H-quinolin-2-one Trifluoroacetate]	200	> 100000	0.2	150
CCn1cc(-c2ccc(-n3cnn(CC(CN)=C(F)F)c3=O)cc2F)cn1 [Example 30, 2-[2-(aminomethyl)-3,3-difluoro-allyl]-4-[4-(1-ethylpyrazol-4-yl)-3-fluoro-phenyl]-1,2,4-triazol-3-one Trifluoroacetate]	890	> 100000	0.6	300
CS(=O)(=O)c1ccc(-c2ccc(-n3cnn(CC(CN)=C(F)F)c3=O)c(F)c2)cc1 [Example 31, 2-[2-(aminomethyl)-3,3-difluoro-allyl]-4-[2-fluoro-4-(4-methylsulfonylphenyl)phenyl]-1,2,4-triazol-3-one Trifluoroacetate]	59	> 100000	0.2	870
NCC(Cn1ncn(-c2ccc(-c3ccc(C(F)(F)F)nc3)cc2F)c1=O)=C(F)F [Example 33, 2-[2-(aminomethyl)-3,3-difluoro-allyl]-4-[2-fluoro-4-[6-(trifluoromethyl)-3-pyridyl]phenyl]-1,2,4-triazol-3-one Trifluoroacetate]	17	11000	0.3	190

Continued by falling IC50 [1], values first:

IC50 [1] [nM]	IC50 [2] [nM]	IC50 (recombinant human VAP-1) [nM]	IC50 [3] [nM]	SMILES
1300	6280	1.7	> 10000	NCC(Cn1ncn(-c2ccc(-c3ccc(N4CCNCC4)cc3)c(F)c2)c1=O)=C(F)F [Example 25, 2-[2-(aminomethyl)-3,3-difluoro-allyl]-4-[3-fluoro-4-(4-piperazin-1-ylphenyl)phenyl]-1,2,4-triazol-3-one Ditrifluoroacetate]
670	> 100000	1.3	17000	NCC(Cn1ncn(-c2ccc(-c3ccc(N4CCNCC4)cc3)cc2F)c1=O)=C(F)F [Example 32, 2-[2-(aminomethyl)-3,3-difluoro-allyl]-4-[2-fluoro-4-(4-piperazin-1-ylphenyl)phenyl]-1,2,4-triazol-3-one Ditrifluoroacetate]
380	> 100000	0.4	350	CN(C)c1ccc(-c2ccc(-n3cnn(CC(CN)=C(F)F)c3=O)cc2F)cn1 [Example 27, 2-[2-(aminomethyl)-3,3-difluoro-allyl]-4-[4-[6-(dimethylamino)-3-pyridyl]-3-fluoro-phenyl]-1,2,4-triazol-3-one Trifluoroacetate]
250	27000	0.3	770	CN(C)c1ccc(-c2ccc(-n3cnn(CC(CN)=C(F)F)c3=O)c(F)c2)cn1 [Example 34, 2-[2-(aminomethyl)-3,3-difluoro-allyl]-4-[4-[6-(dimethylamino)-3-pyridyl]-2-fluoro-phenyl]-1,2,4-triazol-3-one Trifluoroacetate]
71	> 100000	0.7	180	NCC(Cn1ncn(-c2ccc(-c3ccc(C(F)(F)F)nc3)c(F)c2)c1=O)=C(F)F [Example 26, 2-[2-(aminomethyl)-3,3-difluoro-allyl]-4-[3-fluoro-4-[6-(trifluoromethyl)-3-pyridyl]phenyl]-1,2,4-triazol-3-one Trifluoroacetate]
